Measurements: article PMC9114115, “Property space mapping of Pseudomonas aeruginosa permeability to small molecules” (Scientific Reports, 2022)
Values after ≈ are worked out from the molar mass of the structure shown. Values joined by “and” are separate entries in the source; they are usually repeats but may differ in a detail not shown here. Equal entries are not always repeated. Where two headings read alike, the source gives them in different places.

Tests used:
[1] = tested on: P. aeruginosa PAO1; assay: MIC by two-fold dilution, wild type PAO1; assay type: cell-based, Pseudomonas aeruginosa; conditions: for MIC: Pseudomonas aeruginosa
In short: (§1)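 Minimum inhibitory concentrations were determined by serial two-fold dilution, in LB broth for one series and MOPS-M9 medium for the other. Bacteria were cultured at 37 °C with aeration.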

[2] = tested on: P. aeruginosa PAO1-Pore; assay: MIC by two-fold dilution, hyperporinated PAO1-Pore; assay type: cell-based, Pseudomonas aeruginosa; conditions: for MIC: Pseudomonas aeruginosa; for MICs: PAO1-Pore, LB broth, Table S2
In short: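 Strains carried the fhuA pore construct PLAC-fhuA at attTn7; PΔ3 lacks mexAB, mexCD and mexXY efflux pumps. MICs came from two-fold broth dilution in LB or MOPS-M9 medium, depending on the data set, with growth at 37 °C under aeration.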

[3] = tested on: P. aeruginosa PΔ3; assay: microbe, parasite or virus in culture; assay type: cell-based, Pseudomonas aeruginosa; conditions: Pseudomonas aeruginosa
Experimental: In all experiments, P. aeruginosa PAO1-Pore (PAO1 attTn7::PLAC-fhuA) and PΔ3-Pore (ΔmexAB ΔmexCD ΔmexXY attTn7::PLAC-fhuA) strains were used[29]. Strains were routinely grown in Luria–Bertani (LB) or MOPS-M9 medium at 37 °C with aeration. MICs shown in Tables 1 and 2 were determined by a two-fold dilution method in LB broth and MOPS-M9 medium, respectively, following the previously described protocol.

[4] = tested on: P. aeruginosa PΔ3-Pore; assay: MIC by two-fold dilution, barrierless PΔ3-Pore; assay type: cell-based, Pseudomonas aeruginosa; conditions: for MIC: Pseudomonas aeruginosa; for MICs: P∆3-Pore, Table S2
In short: as §1

[5] = tested on: four strains of P. aeruginosa; assay type: cell-based, Pseudomonas aeruginosa
Experimental: Cells were sub-cultured (50–100 mL) 1:100 in fresh LB broth in two flasks per strain. At OD600 0.3 (~ 1.5 to 2 h of incubation), the expression of the pore was induced with 0.1 mM IPTG (final concentration) in one of the flasks and cells were grown for additional 1 to 1.5 h (OD600 1- 1.5). Cells were collected by centrifugation at room temperature (RT) and washed in PMG Buffer (50 mM KPi, pH 7.0, 1 mM MgSO4, 0.4% glucose, prepared fresh) and concentrated 20x (i.e., 100 mL culture resuspended in 5 ml of PMG Buffer with final OD600 ~ 20–30). Assays were performed in 96-well 1.0 µm Glass Fiber Type B filters plates (Millipore). […]
[…] Filter plates were dried, removed from the vacuum manifold and left in the hood overnight to dry completely.

[6] = tested on: P. aeruginosa PAO1 cells; assay: LC–MS quantification of intracellular accumulation, PAO1; conditions: 10-80 µM; for Concentration slopes of accumulation, PAO1_1 min: 1 min incubation; for Concentration slopes of accumulation, PAO1_40 min: 40 min incubation;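 on all read-outs here: slope of accumulation versus external concentration fitted as a line through zero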
In short: (§2)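 Cells grown in MOPS-M9 (pH 7.2) with 1% glycerol, Pore strains induced with 0.1 mM IPTG, concentrated 10X in spent medium and exposed to 10, 20, 40, 80 µM compound for 1 and 40 min at RT. Filter-collected cells extracted with methanol; compound quantified by positive-ion LC–MS against calibration in PAO1 cell extract, no-cell filter controls.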

[7] = tested on: P. aeruginosa PAO1-Pore cells; assay: LC–MS quantification of intracellular accumulation, PAO1-Pore; conditions: 10-80 µM; for Concentration slopes of accumulation, PAO1-Pore_1 min: 1 min incubation; for Concentration slopes of accumulation, PAO1-Pore_40 min: 40 min incubation;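 on all read-outs here: slope of accumulation versus external concentration fitted as a line through zero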
In short: as §2

[8] = tested on: P. aeruginosa PΔ3 cells; conditions: 10-80 µM; for Concentration slopes of accumulation, PΔ3_1 min: 1 min incubation; for Concentration slopes of accumulation, PΔ3_40 min: 40 min incubation;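 on all read-outs here: slope of accumulation versus external concentration fitted as a line through zero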
In short: as §2

[9] = tested on: P. aeruginosa PΔ3-Pore cells; assay: LC–MS quantification of intracellular accumulation, PΔ3-Pore; conditions: 10-80 µM; for Concentration slopes of accumulation, PΔ3-Pore_1 min: 1 min incubation; for Concentration slopes of accumulation, PΔ3-Pore_40min: 40 min incubation;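 on all read-outs here: slope of accumulation versus external concentration fitted as a line through zero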
In short: as §2

[10] = tested on: P. aeruginosa hyperporinated strains; assay: Vancomycin susceptibility spot assay on minimal medium; assay type: cell-based, Pseudomonas aeruginosa; conditions: MOPS-M9 medium, in the presence of inducer
Experimental: PAO1-Pore and PΔ3-Pore were grown at 37 °C overnight with shaking at 225 rpm in 50 mM MOPS-M9 (pH 7.2) Minimal Medium supplemented with 1% glycerol[42],[43].

[11] = tested on: P. aeruginosa; conditions: sheet "Good" permeators; all listed compounds are good permeators
Experimental: The measured levels of compound accumulation were analyzed using machine learning to determine which features of the compounds are most important for enabling their cellular accumulation and to determine their optimal values. […] To accentuate the permeability aspect, the accumulation slopes in efflux-deficient and hyperporinated strains were normalized to those in the parental PAO1 strain.
To help visualize the data, we performed a principal component (PC) decomposition of the data.

[12] = PAO1, LB broth, Table 1, read-out: MIC
[13] = radioactively labeled compound, four strains, 20 min
[14] = PAO1, MOPS-M9 medium, read-out: MICs
[15] = read-out: MICs, P∆3-Pore, MOPS-M9 medium

| Compound | MIC [1, 12] | MIC ([2]; PAO1) | MIC [3] | MIC ([4]; PΔ3-Pore, LB broth, Table 1) | effect of efflux inactivation and hyperporination on accumulation [5, 13] | MIC [1, 14] | MICs [2] | MIC ([2]; PAO1, read-out: MICs) | MIC ([3]; read-out: MICs) | MIC [4, 15] | MICs ([4]; LB broth) | Concentration slopes of accumulation, PAO1_1 min [6] | Concentration slopes of accumulation, PAO1_40 min [6] | Concentration slopes of accumulation, PAO1-Pore_1 min [7] | Concentration slopes of accumulation, PAO1-Pore_40 min [7] | Concentration slopes of accumulation, PΔ3_1 min [8] | Concentration slopes of accumulation, PΔ3_40 min [8] | Concentration slopes of accumulation, PΔ3-Pore_1 min [9] | Concentration slopes of accumulation, PΔ3-Pore_40min [9] | further results |
| --- | --- | --- | --- | --- | --- | --- | --- | --- | --- | --- | --- | --- | --- | --- | --- | --- | --- | --- | --- | --- |
| COCCc1ccc(OCC(O)CNC(C)C)cc1 (stereo not drawn) [Metoprolol] | > 1000 µM | > 1000 µM | > 1000 µM | > 1000 µM | not affected by either of the two barriers | – | – | – | – | – | – | – | – | – | – | – | – | – | – | – |
| CC(C)Nc1cccnc1N1CCN(C(=O)c2cc3cc(NS(C)(=O)=O)ccc3[nH]2)CC1 [Delavirdine] | > 1000 µM | > 1000 µM | > 1000 µM | > 1000 µM | equally affected by inactivation of efflux and hyperporination | – | – | – | – | – | – | – | – | – | – | – | – | – | – | effect of efflux inactivation and hyperporination on accumulation ([5]; radioactively labeled compound, four strains, 20 min, listed as [^3H]-delavirdine): Hyperporination had the strongest effect |
| O=C(O)c1cn(C2CC2)c2cc(N3CCNCC3)c(F)cc2c1=O [OU-0001036, Ciprofloxacin] | 0.19 µM and 0.06 µg/mL | 0.09 µM and 0.03 µg/mL | 0.05 µM and 0.02 µg/mL | 0.02 µM and 0.01 µg/mL | inactivation of efflux led to significantly higher levels of accumulation | 1 µM and 0.33 µg/mL | 0.09 | 0.0625 µM and 0.02 µg/mL | 0.25 µM and 0.08 µg/mL | 0.031 µM and 0.01 µg/mL | 0.02 | 1.15 | 2.47 | 3.53 | 3.32 | 2.99 | 1.33 | 2.77 | 2.77 | effect of hyperporination on antibacterial activity ([2]; MIC PAO1 vs PAO1-Pore): two-fold |
| CN(C)[C@@H]1C(O)=C(C(N)=O)C(=O)[C@@]2(O)C(O)=C3C(=O)c4c(O)cccc4[C@@](C)(O)[C@H]3C[C@@H]12 [Tetracycline] | 12.5 µM and 5.56 µg/mL | 0.39 µM and 0.17 µg/mL | 0.78 µM and 0.35 µg/mL | 0.78 µM and 0.35 µg/mL | – | – | 0.39-1.56 | – | – | – | 0.78 | – | – | – | – | – | – | – | – | effect of efflux inactivation and hyperporination on accumulation ([5]; not told): equally affected by inactivation of efflux and hyperporination |
| O=C1Nc2ccc(Cl)cc2[C@@](C#CC2CC2)(C(F)(F)F)O1 [Efavirenz] | > 1000 µM | > 1000 µM | > 1000 µM | 25 µM and 7.89 µg/mL | – | – | – | – | – | – | – | – | – | – | – | – | – | – | – | MIC ([4]; PΔ3-Pore cells): 25000 µM (≈ 7890 µg/mL); effect of efflux inactivation and hyperporination on accumulation ([5]; not told): Hyperporination had the strongest effect |
| Cc1cc(C(C)(C)C)c(O)c(C)c1CC1=NCCN1 [Oxymetazoline] | > 1000 µM | > 1000 µM | 1000 µM (≈ 260 µg/mL) | 1000 µM (≈ 260 µg/mL) | Efflux inactivation or hyperporination resulted in a similar increase | – | – | – | – | – | – | – | – | – | – | – | – | – | – | accumulated radioactivity washed out of cells ([5]; PΔ3-Pore cells, 30 min incubation, 0.1 mL wash): 95% |
| CN[C@H](CC(C)C)C(=O)N[C@H]1C(=O)N[C@@H](CC(N)=O)C(=O)N[C@H]2C(=O)N[C@H]3C(=O)N[C@H](C(=O)N[C@H](C(=O)O)c4cc(O)cc(O)c4-c4cc3ccc4O)[C@H](O)c3ccc(c(Cl)c3)Oc3cc2cc(c3O[C@@H]2O[C@H](CO)[C@@H](O)[C@H](O)[C@H]2O[C@H]2C[C@](C)(N)[C@H](O)[C@H](C)O2)Oc2ccc(cc2Cl)[C@H]1O [vancomycin] | – | – | – | – | – | – | – | – | – | – | – | – | – | – | – | – | – | – | – | susceptibility in spot assay [10]: highly susceptible |
| NC(=O)Cc1cccc(C(=O)c2ccccc2)c1N [Nepafenac] | – | > 1000 µM | > 1000 µM | > 1000 µM | Hyperporination had the strongest effect | – | – | – | – | – | – | – | – | – | – | – | – | – | – | MIC ([1]; PAO1): > 1000 µM |
| CCn1cc(C(=O)O)c(=O)c2cc(F)c(N3CCNC(C)C3)c(F)c21 (stereo not drawn) [OU-0000616, LOMEFLOXACIN] | – | – | – | – | – | 2.5 µM (≈ 0.878 µg/mL) | 1.56 | 0.125 µM (≈ 0.0439 µg/mL) | 0.625 µM (≈ 0.22 µg/mL) | 0.125 µM (≈ 0.0439 µg/mL) | 0.024 | 3.37 | 2.56 | 2.85 | 10.46 | 2.91 | 6.86 | 3.95 | 8.65 | MICs ([1]; PAO1, LB broth, Table S2): 1.56; Cluster of the identified "good" permeators [11]: 4 |
| Cc1oc(=O)oc1CN1CCN(c2cc3c(cc2F)c(=O)c(C(=O)O)c2n3C(C)S2)CC1 (stereo not drawn) [OU-0000631, PRULIFLOXACIN] | – | – | – | – | – | 0.5 µM and 0.23 µg/mL | 0.0625 | 0.016 µM and 0.01 µg/mL | 0.125 µM and 0.06 µg/mL | 0.004 µM and 0.002 µg/mL | 0.0039 | 10.64 | 11.45 | 7.49 | 9.31 | 7.35 | 8.36 | 5.06 | 5.20 | Cluster of the identified "good" permeators [11]: 3 |
